Results: patent publication US9133183B2, “Imidazolidinones and analogs exhibiting anti-cancer and anti-proliferative activities” (Deciphera Pharmaceuticals, LLC, priority 2013, dated 2015)
Read-outs that look alike come from different tables or passages of the source.

How the values were obtained:
[1] = target: unphosphorylated c-FMS kinase (uFMS, Seq. ID no. 1) (Homo sapiens (Human), UniProt P07333); assay: uFMS kinase assay (ADP production coupled to pyruvate kinase/lactate dehydrogenase); assay type: biochemical
Chain of unphosphorylated c-FMS kinase (uFMS, Seq. ID no. 1) (P07333 538-972): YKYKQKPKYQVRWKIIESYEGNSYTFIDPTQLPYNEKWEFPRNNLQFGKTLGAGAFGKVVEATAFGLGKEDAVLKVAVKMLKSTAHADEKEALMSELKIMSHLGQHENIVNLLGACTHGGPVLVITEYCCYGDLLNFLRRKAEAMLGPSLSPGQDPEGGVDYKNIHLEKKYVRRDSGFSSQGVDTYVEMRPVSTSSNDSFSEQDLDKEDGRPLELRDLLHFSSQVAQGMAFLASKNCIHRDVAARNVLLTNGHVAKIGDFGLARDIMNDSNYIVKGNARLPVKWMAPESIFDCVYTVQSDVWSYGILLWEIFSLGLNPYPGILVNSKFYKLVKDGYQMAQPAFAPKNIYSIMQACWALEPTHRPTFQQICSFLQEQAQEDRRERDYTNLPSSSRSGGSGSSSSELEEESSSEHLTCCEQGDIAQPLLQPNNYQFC
Procedure, shortened: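 Unphosphorylated FMS (10 nM) with polyE4Y 1 mg/mL and 500 μM ATP in 90 mM Tris pH 7.5, 10 mM MgCl2, 0.2% octyl-glucoside, 1% DMSO. ADP formation was coupled via pyruvate kinase/LDH to NADH oxidation, followed at A340 for 4 h at 30° C.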

[2] = target: unphosphorylated c-KIT kinase (uKIT, Seq. ID no. 2) (Homo sapiens (Human), UniProt P10721); assay: uKit kinase assay (coupled pyruvate kinase/lactate dehydrogenase); assay type: biochemical; details: enzymatic assay, ATP 2000 μM
Chain of unphosphorylated c-KIT kinase (uKIT, Seq. ID no. 2) (P10721 other isoform, or with tags, fused parts or gaps): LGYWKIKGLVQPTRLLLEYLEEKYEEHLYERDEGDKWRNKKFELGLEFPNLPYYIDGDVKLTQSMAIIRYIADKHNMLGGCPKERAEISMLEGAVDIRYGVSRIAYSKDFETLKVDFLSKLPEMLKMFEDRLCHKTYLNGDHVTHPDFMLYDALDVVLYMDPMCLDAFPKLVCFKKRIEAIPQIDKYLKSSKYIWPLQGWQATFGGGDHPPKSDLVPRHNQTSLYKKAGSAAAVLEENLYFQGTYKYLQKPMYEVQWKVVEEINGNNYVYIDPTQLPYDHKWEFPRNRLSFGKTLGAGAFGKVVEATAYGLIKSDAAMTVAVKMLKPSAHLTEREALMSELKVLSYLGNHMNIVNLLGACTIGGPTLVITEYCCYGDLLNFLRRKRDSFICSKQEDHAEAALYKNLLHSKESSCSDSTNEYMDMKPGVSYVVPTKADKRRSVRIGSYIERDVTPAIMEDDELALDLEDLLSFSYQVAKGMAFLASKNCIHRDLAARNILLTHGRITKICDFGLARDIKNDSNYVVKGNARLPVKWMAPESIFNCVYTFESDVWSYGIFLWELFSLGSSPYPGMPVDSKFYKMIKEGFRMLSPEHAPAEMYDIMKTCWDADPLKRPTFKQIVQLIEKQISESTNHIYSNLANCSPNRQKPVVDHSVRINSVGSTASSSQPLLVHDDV
Procedure, shortened: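 The read-out was a continuous PK/LDH-coupled decrease in NADH absorbance at 340 nm, monitored at 30 °C over 4 h. IC50 came from % inhibition based on rates at 3–4 h. The GST-tagged unphosphorylated KIT (12 nM) was used with polyE4Y substrate, 2000 μM ATP and 10 mM Mg2+ at pH 7.5, with serially diluted compound.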

M-NFS-60 cells = assay: M-NFS-60 cell proliferation assay (resazurin); assay type: cell-based; details: 67 h incubation
Procedure, shortened: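 Cells kept in medium containing 20 ng/mL mouse recombinant M-CSF. Fluorescence was read at ex 540/em 600 nm, and IC50 was fitted from percent inhibition across a range of inhibitor concentrations.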

osteoclast precursors = assay: Osteoclast tartrate-resistant acid phosphatase assay; assay type: cell-based; details: Osteoclast, 7-14 days, RANKL and M-CSF
[3] = target: c-FMS kinase in THP-1 cells (Homo sapiens (Human), UniProt P07333); assay: Phospho-FMS ELISA assay in THP-1 cells; assay type: cell-based
Chain of c-FMS kinase in THP-1 cells (P07333 20-972): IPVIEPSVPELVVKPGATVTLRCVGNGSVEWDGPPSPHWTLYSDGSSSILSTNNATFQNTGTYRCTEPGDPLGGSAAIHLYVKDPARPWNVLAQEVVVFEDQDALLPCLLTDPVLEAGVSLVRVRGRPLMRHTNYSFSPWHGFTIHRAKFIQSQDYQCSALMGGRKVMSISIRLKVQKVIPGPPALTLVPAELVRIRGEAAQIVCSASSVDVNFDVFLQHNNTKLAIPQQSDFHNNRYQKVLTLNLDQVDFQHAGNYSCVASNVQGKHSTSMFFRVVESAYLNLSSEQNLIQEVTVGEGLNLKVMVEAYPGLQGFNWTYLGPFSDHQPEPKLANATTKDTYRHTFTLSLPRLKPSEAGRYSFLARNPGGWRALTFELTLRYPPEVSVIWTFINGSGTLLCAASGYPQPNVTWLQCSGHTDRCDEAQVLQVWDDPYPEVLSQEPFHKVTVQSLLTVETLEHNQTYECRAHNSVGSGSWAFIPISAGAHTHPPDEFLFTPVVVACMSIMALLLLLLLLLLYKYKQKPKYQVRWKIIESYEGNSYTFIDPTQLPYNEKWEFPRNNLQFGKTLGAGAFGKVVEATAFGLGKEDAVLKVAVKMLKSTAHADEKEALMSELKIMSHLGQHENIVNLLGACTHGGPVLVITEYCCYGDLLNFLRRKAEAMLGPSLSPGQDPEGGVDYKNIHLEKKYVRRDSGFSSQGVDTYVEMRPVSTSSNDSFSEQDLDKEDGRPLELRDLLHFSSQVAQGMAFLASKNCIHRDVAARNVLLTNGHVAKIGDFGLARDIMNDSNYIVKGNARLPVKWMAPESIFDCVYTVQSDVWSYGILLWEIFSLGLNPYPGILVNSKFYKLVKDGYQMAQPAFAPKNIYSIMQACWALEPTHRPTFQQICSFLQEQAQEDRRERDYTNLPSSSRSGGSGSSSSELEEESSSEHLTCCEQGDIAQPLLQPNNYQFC

[4] = enzymatic assay, ATP 500 μM, read-out: uFMS
[5] = 4 h compound, M-CSF stimulation 5 min, read-out: pFMS inhibition in THP-1 cells

Row | IC50 [1, 4] | IC50 [2] | IC50 (osteoclast precursors) | IC50 [3, 5] | SMILES | IC50 (M-NFS-60 cells) | IC50 ([1]; uFMS, enzymatic assay, ATP 500 μM) | IC50 [3] | IC50 ([1]; Table 4, read-out: c-FMS IC50)
1 | < 10 nM | < 10 nM | 10 to 100 nM | < 10 nM | Cn1cc(-c2cc(Oc3ccc(NC(=O)N4CCN(C(C)(C)C)C4=O)nc3)ccn2)cn1 [Example 34, 3-(tert-butyl)-N-(5-((2-(1-methyl-1H-pyrazol-4-yl)pyridin-4-yl)oxy)pyridin-2-yl)-2-oxoimidazolidine-1-carboxamide] | 10 to 100 nM |  |  | 
2 | < 10 nM | 100 to 1000 nM | < 10 nM | < 10 nM | Cc1nc(NC(=O)N2CCN(C(C)C)C2=O)ccc1Oc1ccnc(-c2cnn(C)c2)c1 [Example 35, 3-isopropyl-N-(6-methyl-5-((2-(1-methyl-1H-pyrazol-4-yl)pyridin-4-yl)oxy)pyridin-2-yl)-2-oxoimidazolidine-1-carboxamide] | 10 to 100 nM |  |  | 
3 | < 10 nM | 10 to 100 nM | < 10 nM | < 10 nM | CC(C)N1CCN(C(=O)Nc2ccc(Oc3ccnc(-c4cnn(C)c4)c3)cn2)C1=O [Example 36, 3-isopropyl-N-(5-((2-(1-methyl-1H-pyrazol-4-yl)pyridin-4-yl)oxy)pyridin-2-yl)-2-oxoimidazolidine-1-carboxamide] | < 10 nM |  |  | 
4 | 10 to 100 nM | 100 to 1000 nM | 10 to 100 nM | 10 to 100 nM | [2H]C([2H])([2H])n1cc(-c2cc(Oc3ccc(NC(=O)N4CCN(CCOC)C4=O)nc3C)ccn2)cn1 [Example 39, 3-(2-methoxyethyl)-N-(6-methyl-5-((2-(1-(trideuteromethyl)-1H-pyrazol-4-yl)pyridin-4-yl)oxy)pyridin-2-yl)-2-oxoimidazolidine-1-carboxamide] | 100 to 1000 nM |  |  | 
5 | < 10 nM | 100 to 1000 nM | < 10 nM | 10 to 100 nM | Cc1nc(NC(=O)N2CCN(CC(F)(F)F)C2=O)ccc1Oc1ccnc(-c2cnn(C)c2)c1 [Example 43, N-(6-methyl-5-((2-(1-methyl-1H-pyrazol-4-yl)pyridin-4-yl)oxy)pyridin-2-yl)-2-oxo-3-(2,2,2-trifluoroethyl)imidazolidine-1-carboxamide] | < 10 nM |  |  | 
6 | 10 to 100 nM | > 1000 nM | 10 to 100 nM | 100 to 1000 nM | CCc1nc(NC(=O)N2CCN(C3CCOCC3)C2=O)ccc1Oc1ccnc(-c2cnn(C)c2)c1 [Example 49, N-(6-ethyl-5-((2-(1-methyl-1H-pyrazol-4-yl)pyridin-4-yl)oxy)pyridin-2-yl)-2-oxo-3-(tetrahydro-2H-pyran-4-yl)imidazolidine-1-carboxamide] | 100 to 1000 nM |  |  | 
7 | 10 to 100 nM | 10 to 100 nM | 10 to 100 nM | 100 to 1000 nM | Cc1ccc(-c2cc(Oc3ccc(NC(=O)N4CCN(C5CCOCC5)C4=O)nc3)ccn2)cn1 [Example 52, N-(5-((6′-methyl-[2,3′-bipyridin]-4-yl)oxy)pyridin-2-yl)-2-oxo-3-(tetrahydro-2H-pyran-4-yl)imidazolidine-1-carboxamide] | 10 to 100 nM |  |  | 
8 | 10 to 100 nM | 100 to 1000 nM | 10 to 100 nM | 100 to 1000 nM | Cc1ccc(-c2cc(Oc3ccc(NC(=O)N4CCN(C5CCOCC5)C4=O)nc3C)ccn2)cn1 [Example 54, N-(6-methyl-5-((6′-methyl-[2,3′-bipyridin]-4-yl)oxy)pyridin-2-yl)-2-oxo-3-(tetrahydro-2H-pyran-4-yl)imidazolidine-1-carboxamide] | 10 to 100 nM |  |  | 
9 | 10 to 100 nM | > 1000 nM | 100 to 1000 nM | 100 to 1000 nM | CCc1nc(NC(=O)N2CCN(CC(F)(F)F)C2=O)ccc1Oc1ccnc(-c2cnn(C)c2)c1 [Example 56, N-(6-ethyl-5-((2-(1-methyl-1H-pyrazol-4-yl)pyridin-4-yl)oxy)pyridin-2-yl)-2-oxo-3-(2,2,2-trifluoroethyl)imidazolidine-1-carboxamide] | 10 to 100 nM |  |  | 
10 | < 10 nM | > 1000 nM | 10 to 100 nM | 10 to 100 nM | CCc1nc(NC(=O)N2CCN(C3CCCC3)C2=O)ccc1Oc1ccnc(-c2cnn(C)c2)c1 [Example 57, 3-cyclopentyl-N-(6-ethyl-5-((2-(1-methyl-1H-pyrazol-4-yl)pyridin-4-yl)oxy)pyridin-2-yl)-2-oxoimidazolidine-1-carboxamide] | < 10 nM |  |  | 
11 | 10 to 100 nM | > 1000 nM | 10 to 100 nM | 10 to 100 nM | CCc1nc(NC(=O)N2CCN(C3CC3)C2=O)ccc1Oc1ccnc(-c2cnn(C)c2)c1 [Example 58, 3-cyclopropyl-N-(6-ethyl-5-((2-(1-methyl-1H-pyrazol-4-yl)pyridin-4-yl)oxy)pyridin-2-yl)-2-oxoimidazolidine-1-carboxamide] | 10 to 100 nM |  |  | 
12 | < 10 nM | 100 to 1000 nM | < 10 nM | < 10 nM | CCN1CCN(C(=O)Nc2ccc(Oc3ccnc(-c4ccc(C5CCN(C)CC5)cc4)c3)c(C)n2)C1=O [Example 61, 3-ethyl-N-(6-methyl-5-((2-(4-(1-methylpiperidin-4-yl)phenyl)pyridin-4-yl)oxy)pyridin-2-yl)-2-oxoimidazolidine-1-carboxamide] | < 10 nM |  |  | 
13 | < 10 nM | 10 to 100 nM | < 10 nM | 10 to 100 nM | Cc1cc(NC(=O)N2CCN(C)C2=O)ncc1Oc1ccnc(-c2cnn(C)c2)c1 [Example 85, 3-methyl-N-(4-methyl-5-((2-(1-methyl-1H-pyrazol-4-yl)pyridin-4-yl)oxy)pyridin-2-yl)-2-oxoimidazolidine-1-carboxamide] | 10 to 100 nM |  |  | 
14 | 10 to 100 nM | 100 to 1000 nM | 10 to 100 nM | 10 to 100 nM | CCN1CCN(C(=O)Nc2cc(C)c(Oc3ccnc(-n4cnc(C)c4)c3)cn2)C1=O [Example 88, 3-ethyl-N-(4-methyl-5-((2-(4-methyl-1H-imidazol-1-yl)pyridin-4-yl)oxy)pyridin-2-yl)-2-oxoimidazolidine-1-carboxamide] | 10 to 100 nM |  |  | 
15 | 100 to 1000 nM | 100 to 1000 nM | 10 to 100 nM | 10 to 100 nM | CCN1CCN(C(=O)Nc2ccc(Oc3ccnc(-c4cnc(C)o4)c3)cn2)C1=O [Example 117, 3-ethyl-N-(5-((2-(2-methyloxazol-5-yl)pyridin-4-yl)oxy)pyridin-2-yl)-2-oxoimidazolidine-1-carboxamide] | 100 to 1000 nM |  |  | 
16 | 10 to 100 nM | > 1000 nM | 10 to 100 nM | 10 to 100 nM | CCN1CCN(C(=O)Nc2ccc(Oc3ccnc(-c4ccnc(C)c4)c3)c(C)n2)C1=O [Example 118, 3-ethyl-N-(6-methyl-5-((2′-methyl-[2,4′-bipyridin]-4-yl)oxy)pyridin-2-yl)-2-oxoimidazolidine-1-carboxamide] | 10 to 100 nM |  |  | 
17 | 10 to 100 nM | 100 to 1000 nM | 10 to 100 nM | 10 to 100 nM | CC(=O)Nc1cc(Oc2ccc(NC(=O)N3CCN(C4CCOCC4)C3=O)nc2)ccn1 [Example 119, N-(5-((2-acetamidopyridin-4-yl)oxy)pyridin-2-yl)-2-oxo-3-(tetrahydro-2H-pyran-4-yl)imidazolidine-1-carboxamide] | 10 to 100 nM |  |  | 
18 | < 10 nM | 10 to 100 nM | < 10 nM | 10 to 100 nM | CN(C)C(=O)Nc1cc(Oc2ccc(NC(=O)N3CCN(C4CCOCC4)C3=O)nc2)ccn1 [Example 120, N-(5-((2-(3,3-dimethylureido)pyridin-4-yl)oxy)pyridin-2-yl)-2-oxo-3-(tetrahydro-2H-pyran-4-yl)imidazolidine-1-carboxamide] | 10 to 100 nM |  |  | 

Row | SMILES | IC50 [1, 4] | IC50 [2] | IC50 (osteoclast precursors) | IC50 [3, 5] | IC50 (M-NFS-60 cells) | IC50 ([1]; uFMS, enzymatic assay, ATP 500 μM) | IC50 [3] | IC50 ([1]; Table 4, read-out: c-FMS IC50)
19 | Cc1nc(NC(=O)N2CCN(C)C2=O)ccc1Oc1ccnc(-c2cnn(C)c2)c1 [Example 41, 3-methyl-N-(6-methyl-5-((2-(1-methyl-1H-pyrazol-4-yl)pyridin-4-yl)oxy)pyridin-2-yl)-2-oxoimidazolidine-1-carboxamide] |  | > 1000 nM | 10 to 100 nM |  | 100 to 1000 nM | 10 to 100 nM | 10 to 100 nM | 
20 | CCN1CCN(C(=O)Nc2ccc(Oc3ccnc(-c4cnn(C)c4)c3)c(C)n2)C1=O [Example 42, 3-ethyl-N-(6-methyl-5-((2-(1-methyl-1H-pyrazol-4-yl)pyridin-4-yl)oxy)pyridin-2-yl)-2-oxoimidazolidine-1-carboxamide] | < 10 nM | 100 to 1000 nM | < 10 nM | 10 to 100 nM | 10 to 100 nM |  |  | 8 nM
